Laboratory results taken from publication PMC13185819, “De Novo Multi‐Mechanism Antimicrobial Peptide Design via Multimodal Deep Learning” (Advanced Science, 2026).
Converted amounts (≈) assume the structure as drawn. Residues, ends and D or L forms follow the SMILES beside them.

Assays:
Format in all cases: cell-based
E.coli 208 = test system: E.coli 208
Method: (§1) Standard strains included S. aureus ATCC33592, S. aureus CICC25138, and Salmonella enterica ATCC14028, which were purchased from the China Center of Industrial Culture Collection (CICC). Standard strains including E.coli CMCC44102, Salmonella enterica CMCC50071, and S. aureus CMCC26003 were purchased from the National Center for Medical Culture Collections (CMCC). […] All experiments using the above strains were carried out in a BSL‐2 laboratory. The clinical laboratory of Qilu Hospital detected bacterial resistance to various antibiotics. All strains were streaked on Nutrient Broth (NB) agar medium and incubated overnight at 37°C.
(§2) The antimicrobial activity of the peptides was examined in sterile 96‐well plates using the broth microdilution according to the CLSI standard. The colonies were suspended in saline solution, the turbidity was adjusted to McFarland 0.5 to reach a bacterial concentration of 10^8 CFU/mL, and again diluted 100 times for the inhibition test. Then, 50 µL of bacterial suspension at 1 × 10^6 CFU/mL was incubated with the same volume of different concentrations of peptide solution [serial twofold dilutions in Mueller–Hinton Broth (Hopebio)]. […] All experiments were performed with three independent replicates.

P. aeruginosa 112 = test system: P. aeruginosa 112
Method: as §1, §2

E. faecium 21 = test system: E. faecium 21
Method: as §1, §2

S. aureus ATCC33592 = test system: S. aureus ATCC33592
Method: as §1, §2

S. aureus CICC25138 = test system: S. aureus CICC25138
Method: as §1, §2

P. aeruginosa 119 = test system: P. aeruginosa 119
Method: as §1, §2

K. pneumoniae 7713 = test system: K. pneumoniae 7713
Method: as §1, §2

P. aeruginosa 116 = test system: P. aeruginosa 116
Method: as §1, §2

S. aureus 103 = test system: S. aureus 103
Method: as §1, §2

S. aureus 129 = test system: S. aureus 129
Method: as §1, §2

E.coli 110 = test system: E.coli 110
Method: as §1, §2

E. faecium 1042 = test system: E. faecium 1042
Method: as §1, §2

S. aureus CMCC26003 = test system: S. aureus CMCC26003
Method: as §1, §2

E.coli CMCC44102 = test system: E.coli CMCC44102
Method: as §1, §2

Row | SMILES | MIC (μg/mL) E.coli 208 (E.coli 208) [µg/mL] | MIC (μg/mL) P. aeruginosa 112 (P. aeruginosa 112) [µg/mL] | MIC (μg/mL) E. faecium 21 (E. faecium 21) [µg/mL] | MIC (μg/mL) S. aureus ATCC33592 (S. aureus ATCC33592) [µg/mL] | MIC (μg/mL) S. aureus CICC25138 (S. aureus CICC25138) [µg/mL] | MIC (μg/mL) P. aeruginosa 119 (P. aeruginosa 119) [µg/mL] | MIC (μg/mL) K. pneumoniae 7713 (K. pneumoniae 7713) [µg/mL] | MIC (μg/mL) P. aeruginosa 116 (P. aeruginosa 116) [µg/mL] | MIC (μg/mL) S. aureus 103 (S. aureus 103) [µg/mL] | MIC (μg/mL) S. aureus 129 (S. aureus 129) [µg/mL] | MIC (μg/mL) E.coli 110 (E.coli 110) [µg/mL] | MIC (μg/mL) E. faecium 1042 (E. faecium 1042) [µg/mL] | MIC (μg/mL) S. aureus CMCC26003 (S. aureus CMCC26003) [µg/mL] | MIC (μg/mL) E.coli CMCC44102 (E.coli CMCC44102) [µg/mL]
1 | CC[C@H](C)[C@H](NC(=O)[C@H](CCCCN)NC(=O)[C@H](Cc1c[nH]c2ccccc12)NC(=O)[C@@H](N)CCCCN)C(=O)N[C@@H](CCCCN)C(=O)N[C@@H](CCC(N)=O)C(=O)N[C@@H](Cc1c[nH]c2ccccc12)C(=O)N[C@H](C(=O)N[C@@H](CCCNC(=N)N)C(=O)N[C@@H](Cc1c[nH]c2ccccc12)C(=O)N[C@@H](Cc1ccccc1)C(=O)N[C@@H](CCCNC(=N)N)C(=O)N[C@@H](CCCCN)C(=O)N[C@@H](CC(C)C)C(N)=O)C(C)C [QLX-3DV-6] (H-KWKIKQWVRWFRKL-NH2) | 4 (≈ 2 µM) | 32 (≈ 16 µM) | 8 (≈ 4 µM) | 16 (≈ 7.99 µM) | 16 (≈ 7.99 µM) | 128 (≈ 64 µM) | 16 (≈ 7.99 µM) | 16 (≈ 7.99 µM) | 16 (≈ 7.99 µM) | 16 (≈ 7.99 µM) | 8 (≈ 4 µM) | 8 (≈ 4 µM) | – | –
2 | CC[C@H](C)[C@H](NC(=O)[C@H](CCCCN)NC(=O)[C@H](CCCNC(=N)N)NC(=O)[C@@H](N)CCCCN)C(=O)N[C@@H](CCCCN)C(=O)N[C@@H](Cc1c[nH]c2ccccc12)C(=O)N[C@@H](CCCCN)C(=O)N[C@H](C(=O)N[C@@H](CCCNC(=N)N)C(=O)N[C@@H](Cc1c[nH]c2ccccc12)C(=O)N[C@@H](Cc1ccccc1)C(=O)N[C@H](C(=O)N[C@@H](Cc1ccc(O)cc1)C(=O)N[C@@H](CC(C)C)C(N)=O)[C@@H](C)O)C(C)C [QLX-3DV-7] (H-KRKIKWKVRWFTYL-NH2) | 32 (≈ 16.4 µM) | 32 (≈ 16.4 µM) | 8 (≈ 4.1 µM) | 16 (≈ 8.2 µM) | 16 (≈ 8.2 µM) | 64 (≈ 32.8 µM) | 16 (≈ 8.2 µM) | 8 (≈ 4.1 µM) | 16 (≈ 8.2 µM) | 16 (≈ 8.2 µM) | 16 (≈ 8.2 µM) | 8 (≈ 4.1 µM) | – | –
3 | CC[C@H](C)[C@H](NC(=O)[C@H](CCCCN)NC(=O)[C@H](Cc1c[nH]c2ccccc12)NC(=O)[C@@H](N)CCCCN)C(=O)N[C@@H](CCCCN)C(=O)N[C@@H](Cc1c[nH]c2ccccc12)C(=O)N[C@@H](CCCNC(=N)N)C(=O)N[C@H](C(=O)N[C@@H](CCCNC(=N)N)C(=O)N[C@@H](Cc1c[nH]c2ccccc12)C(=O)N[C@@H](Cc1ccccc1)C(=O)N[C@@H](CCCCN)C(=O)N[C@@H](CC(C)C)C(=O)N[C@@H](CC(C)C)C(N)=O)C(C)C [QLX-3DV-9] (H-KWKIKWRVRWFKLL-NH2) | 16 (≈ 8.05 µM) | 16 (≈ 8.05 µM) | 2 (≈ 1.01 µM) | 16 (≈ 8.05 µM) | 8 (≈ 4.03 µM) | 16 (≈ 8.05 µM) | 16 (≈ 8.05 µM) | 4 (≈ 2.01 µM) | 8 (≈ 4.03 µM) | 8 (≈ 4.03 µM) | 8 (≈ 4.03 µM) | 2 (≈ 1.01 µM) | – | –
4 | CC[C@H](C)[C@H](NC(=O)[C@H](CCCCN)NC(=O)[C@H](Cc1c[nH]c2ccccc12)NC(=O)[C@@H](N)CCCCN)C(=O)N[C@@H](CCCCN)C(=O)N[C@@H](Cc1c[nH]c2ccccc12)C(=O)N[C@@H](Cc1c[nH]cn1)C(=O)N[C@H](C(=O)N[C@@H](CCCNC(=N)N)C(=O)N[C@@H](Cc1c[nH]c2ccccc12)C(=O)N[C@@H](Cc1ccccc1)C(=O)N[C@@H](CCCNC(=N)N)C(=O)N[C@H](C(=O)N[C@@H](CC(C)C)C(N)=O)C(C)C)C(C)C [QLX-3DV-10] (H-KWKIKWHVRWFRVL-NH2) | 32 (≈ 16.1 µM) | 32 (≈ 16.1 µM) | 8 (≈ 4.04 µM) | 16 (≈ 8.07 µM) | 32 (≈ 16.1 µM) | 64 (≈ 32.3 µM) | 16 (≈ 8.07 µM) | 8 (≈ 4.04 µM) | 8 (≈ 4.04 µM) | 16 (≈ 8.07 µM) | 32 (≈ 16.1 µM) | 8 (≈ 4.04 µM) | – | –
5 | CC(C)C[C@H](NC(=O)[C@H](Cc1ccccc1)NC(=O)[C@H](CCCCN)NC(=O)[C@H](Cc1c[nH]c2ccccc12)NC(=O)[C@H](Cc1c[nH]c2ccccc12)NC(=O)[C@@H]1CCCN1C(=O)[C@H](CCCNC(=N)N)NC(=O)[C@@H](NC(=O)[C@H](Cc1ccccc1)NC(=O)[C@H](CCCCN)NC(=O)[C@H](CCCNC(=N)N)NC(=O)[C@H](Cc1c[nH]c2ccccc12)NC(=O)[C@H](CCCNC(=N)N)NC(=O)[C@H](CCCCN)NC(=O)[C@H](Cc1ccc(O)cc1)NC(=O)[C@H](CCC(N)=O)NC(=O)[C@@H](N)CCCNC(=N)N)C(C)C)C(=O)N[C@@H](CCCCN)C(=O)N[C@@H](CC(=O)O)C(N)=O [QLX-3DV-14] (H-RQYKRWRKFVRPWWKFLKD-NH2) | 16 (≈ 5.88 µM) | 4 (≈ 1.47 µM) | 8 (≈ 2.94 µM) | 8 (≈ 2.94 µM) | 32 (≈ 11.8 µM) | 128 (≈ 47 µM) | – | 32 (≈ 11.8 µM) | 8 (≈ 2.94 µM) | 16 (≈ 5.88 µM) | 8 (≈ 2.94 µM) | – | 8 (≈ 2.94 µM) | 4 (≈ 1.47 µM)
6 | CC[C@H](C)[C@H](NC(=O)[C@H](CC(C)C)NC(=O)[C@@H](NC(=O)[C@H](C)NC(=O)[C@@H](N)CC(C)C)C(C)C)C(=O)N[C@@H](Cc1ccccc1)C(=O)N[C@H](C(=O)N[C@@H](CCCNC(=N)N)C(=O)N[C@@H](CCCNC(=N)N)C(=O)N[C@@H](CCCCN)C(=O)N[C@@H](CCC(N)=O)C(=O)N[C@@H](CC(C)C)C(N)=O)C(C)C [QLX-3DV-17] (H-LAVLIFVRRKQL-NH2) | 16 (≈ 11 µM) | – | 16 (≈ 11 µM) | 64 (≈ 44 µM) | 32 (≈ 22 µM) | 64 (≈ 44 µM) | – | – | 32 (≈ 22 µM) | 16 (≈ 11 µM) | 32 (≈ 22 µM) | 8 (≈ 5.5 µM) | 4 (≈ 2.75 µM) | 8 (≈ 5.5 µM)
7 | CC[C@H](C)[C@H](NC(=O)[C@H](Cc1c[nH]c2ccccc12)NC(=O)[C@@H]1CCCN1C(=O)[C@H](CC(C)C)NC(=O)[C@H](CCCCN)NC(=O)[C@H](Cc1c[nH]c2ccccc12)NC(=O)[C@H](C)NC(=O)[C@H](CCCNC(=N)N)NC(=O)[C@H](CCC(N)=O)NC(=O)[C@H](CCC(N)=O)NC(=O)[C@@H](N)Cc1ccc(O)cc1)C(=O)N[C@@H](CC(C)C)C(=O)N[C@@H](CCCNC(=N)N)C(=O)N[C@@H](Cc1ccccc1)C(=O)N[C@@H](CC(C)C)C(=O)N[C@@H](CCCNC(=N)N)C(=O)N[C@@H](CC(C)C)C(N)=O [QLX-3DV-18] (H-YQQRAWKLPWILRFLRL-NH2) | 8 (≈ 3.5 µM) | 8 (≈ 3.5 µM) | 8 (≈ 3.5 µM) | – | 16 (≈ 7 µM) | 64 (≈ 28 µM) | 64 (≈ 28 µM) | – | 16 (≈ 7 µM) | 32 (≈ 14 µM) | 32 (≈ 14 µM) | 8 (≈ 3.5 µM) | 16 (≈ 7 µM) | 16 (≈ 7 µM)
8 | CC[C@H](C)[C@H](N)C(=O)N[C@@H](CCCNC(=N)N)C(=O)N1CCC[C@H]1C(=O)N[C@@H](CC(C)C)C(=O)N[C@H](C(=O)N[C@@H](CCC(N)=O)C(=O)N1CCC[C@H]1C(=O)N[C@@H](CCCNC(=N)N)C(=O)N[C@@H](Cc1ccc(O)cc1)C(=O)N[C@@H](CCCNC(=N)N)C(=O)N[C@@H](Cc1ccccc1)C(=O)N[C@@H](Cc1ccc(O)cc1)C(=O)N1CCC[C@H]1C(=O)N[C@@H](CCCNC(=N)N)C(=O)N[C@@H](CCCCN)C(=O)N[C@@H](CCCNC(=N)N)C(=O)N[C@@H](CC(C)C)C(N)=O)C(C)C [QLX-3DV-20] (H-IRPLVQPRYRFYPRKRL-NH2) | 16 (≈ 7.09 µM) | 32 (≈ 14.2 µM) | 64 (≈ 28.3 µM) | – | – | – | 64 (≈ 28.3 µM) | – | – | 64 (≈ 28.3 µM) | 32 (≈ 14.2 µM) | 64 (≈ 28.3 µM) | 16 (≈ 7.09 µM) | 16 (≈ 7.09 µM)
